ChEMBL document CHEMBL1149702, “Toward novel HIV-1 integrase binding inhibitors: molecular modeling, synthesis, and biological studies” (Bioorg Med Chem Lett, 2007)

molecular target: Human immunodeficiency virus type 1 integrase (Human immunodeficiency virus 1, UniProt Q7ZJM1); assay: Inhibition of HIV1 integrase
Sequence (Q7ZJM1 whole entry): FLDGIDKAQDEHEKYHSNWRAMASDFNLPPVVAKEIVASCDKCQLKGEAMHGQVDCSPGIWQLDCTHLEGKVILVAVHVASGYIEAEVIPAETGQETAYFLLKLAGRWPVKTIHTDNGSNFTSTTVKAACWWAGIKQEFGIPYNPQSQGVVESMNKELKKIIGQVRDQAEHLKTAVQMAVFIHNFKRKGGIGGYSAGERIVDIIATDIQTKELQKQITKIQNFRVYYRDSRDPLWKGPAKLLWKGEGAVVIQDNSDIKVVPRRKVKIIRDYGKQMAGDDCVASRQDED

| Compound | IC50 |
| --- | --- |
| N#CC(=Cc1ccc(-c2cccc(C(=O)O)c2)o1)c1nc2ccccc2[nH]1 | 164 µM |
| N#CC(=Cc1ccc(-c2cc([N+](=O)[O-])ccc2Cl)o1)c1nc2ccccc2[nH]1 | 58.7 µM |
| O=[N+]([O-])c1cccc(-c2ccc(/C=C/c3nc4ccccc4[nH]3)o2)c1 | 12 µM |
| N#CC(=Cc1ccc(-c2ccc(Cl)c(C(=O)O)c2)o1)c1nc2ccccc2[nH]1 | 90.4 µM |
| N#CC(=Cc1ccc(-c2ccc(C(=O)O)cc2)o1)c1nc2ccccc2[nH]1 | > 281 µM |
| Cc1ccc(C(=O)O)cc1-c1ccc(C=C(C#N)c2nc3ccccc3[nH]2)o1 | 39.8 µM |
| N#CC(=Cc1ccc(-c2ccc(O)c(C(=O)O)c2)o1)c1nc2ccccc2[nH]1 | 68.7 µM |
| N#CC(=Cc1ccc(-c2ccc(Cl)cc2)o1)c1nc2ccccc2[nH]1 | > 289 µM |
| O=[N+]([O-])c1ccccc1-c1ccc(/C=C/c2nc3ccccc3[nH]2)o1 | > 302 µM |
| Cc1c(-c2ccc(/C=C/c3nc4ccccc4[nH]3)o2)cccc1[N+](=O)[O-] | > 290 µM |
| O=[N+]([O-])c1cc(Cl)ccc1-c1ccc(/C=C/c2nc3ccccc3[nH]2)o1 | > 273 µM |
| Cc1c(-c2ccc(C=C(C#N)c3nc4ccccc4[nH]3)o2)cccc1[N+](=O)[O-] | 85.8 µM |
| N#CC(=Cc1ccc(-c2ccccc2[N+](=O)[O-])o1)c1nc2ccccc2[nH]1 | > 281 µM |
| C/C(=C\c1ccc(-c2ccc(Cl)cc2[N+](=O)[O-])o1)c1nc2ccccc2[nH]1 | > 263 µM |
| FC(F)(F)c1cccc(Cl)c1-c1ccc(/C=C/c2nc3ccccc3[nH]2)o1 | > 257 µM |
| N#C/C(=C\c1ccc(-c2c(Cl)cccc2C(F)(F)F)o1)c1nc2ccccc2o1 | > 241 µM |
| N#CC(=Cc1ccc(-c2ccc(C(=O)O)c(O)c2)o1)c1nc2ccccc2[nH]1 | 70.3 µM |
| N#CC(=Cc1ccc(-c2ccc(F)cc2C(=O)O)o1)c1nc2ccccc2[nH]1 | > 268 µM |
| N#CC(=Cc1ccc(-c2cccc([N+](=O)[O-])c2)o1)c1nc2ccccc2[nH]1 | > 281 µM |
| N#CC(=Cc1ccc(-c2cc(C(F)(F)F)ccc2Cl)o1)c1nc2ccccc2[nH]1 | 31.3 µM |
| N#C/C(=C\c1ccc(-c2c(Cl)cccc2C(F)(F)F)o1)c1nc2ccccc2s1 | > 232 µM |
| N#C/C(=C\c1ccc(-c2ccc(Cl)cc2[N+](=O)[O-])o1)c1nc2ccccc2s1 | > 245 µM |
| N#C/C(=C\c1ccc(-c2cccc([N+](=O)[O-])c2)o1)c1nc2ccccc2s1 | > 268 µM |
| Cc1ccc2[nH]c(C(C#N)=Cc3ccc(-c4ccc(Cl)cc4C(=O)O)o3)nc2c1 | 36.2 µM |
| COc1c(C)cc(-c2ccc(C=C(C#N)c3nc4ccccc4[nH]3)o2)cc1C | > 271 µM |
| CC(C)(C)OC(=O)Nc1ccc(-c2ccc(C=C(C#N)c3nc4ccccc4[nH]3)o2)cc1 | > 235 µM |
| NC(=O)/C(=C\c1ccc(-c2ccc(Cl)cc2[N+](=O)[O-])o1)c1nc2ccccc2[nH]1 | > 244 µM |
| N#C/C(=C\c1ccc(-c2cccc([N+](=O)[O-])c2)o1)c1nc2ccccc2o1 | > 280 µM |
| COc1c(C)cc(-c2ccc(/C=C/c3nc4ccccc4[nH]3)o2)cc1C | > 291 µM |
| COc1ccc(-c2ccc(C=C(C#N)c3nc4ccccc4[nH]3)o2)cn1 | > 292 µM |
